According to publication PMC12442392, “Identification of a novel ipp gene cluster responsible for 2-isopropylphenol degradation in strain Rhodococcus sp. D-6” (Applied and Environmental Microbiology, 2025):
Positions count from the first letter of the chain named.

Key:
[1] = test system: T1, IppA1A2 (IppA1 with reductase component IppA2); test: Michaelis-Menten kinetics, nonlinear regression; format: biochemical, Rhodococcus sp. D-6; details: 250 µM NADH, 10 µM FAD, 1.2 µM IppA1, 0.4 µM IppA2; 20 mM Tris-HCl pH 7.4, 30°C; read-out: apparent Km
T1 construct: mixed at molar ratio 3:1 in assay; with 2-isopropylphenol monooxygenase, reductase component (flavin reductase)

[2] = target: T2, IppB (Rhodococcus sp. D-6, UniProt A0AAU7V3K6, E120A, form not given); test: enzyme activity assay; format: biochemical; details: standard assay 200 µM substrate, 1.0 µM enzyme, 10 µM Fe^2+; 20 mM Tris-HCl pH 7.4, 30°C; Fe(II)-binding residue
T2 sequence (A0AAU7V3K6 1-190 E120A): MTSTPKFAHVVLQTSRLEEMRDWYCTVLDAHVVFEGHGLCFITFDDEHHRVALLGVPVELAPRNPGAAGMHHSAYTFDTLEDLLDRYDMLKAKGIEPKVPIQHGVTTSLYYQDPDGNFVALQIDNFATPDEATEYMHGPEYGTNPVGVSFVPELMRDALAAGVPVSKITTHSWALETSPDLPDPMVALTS

[3] = target: T3, IppB (Rhodococcus sp. D-6, UniProt A0AAU7V3K6, H9A, form not given); test: enzyme activity assay; format: biochemical; details: standard assay 200 µM substrate, 1.0 µM enzyme, 10 µM Fe^2+; 20 mM Tris-HCl pH 7.4, 30°C; Fe(II)-binding residue
T3 sequence (A0AAU7V3K6 1-190 H9A): T2 sequence (A0AAU7V3K6 1-190 E120A) with H9A, A120E

[4] = target: T4, IppB (Rhodococcus sp. D-6, UniProt A0AAU7V3K6, H72A, form not given); test: enzyme activity assay; format: biochemical; details: standard assay 200 µM substrate, 1.0 µM enzyme, 10 µM Fe^2+; 20 mM Tris-HCl pH 7.4, 30°C; Fe(II)-binding residue
T4 sequence (A0AAU7V3K6 1-190 H72A): T2 sequence (A0AAU7V3K6 1-190 E120A) with H72A, A120E

[5] = target: T5, IppB (Rhodococcus sp. D-6, UniProt A0AAU7V3K6); test: Michaelis-Menten kinetics, nonlinear regression; format: biochemical; details: 1.0 µM IppB, 10 µM Fe^2+; 20 mM Tris-HCl pH 7.4, 30°C; read-out: apparent Km
T5 sequence (A0AAU7V3K6 1-190): T2 sequence (A0AAU7V3K6 1-190 E120A) with A120E

Km [1] [µM]	Km [5] [µM]	Structure (SMILES)	activity lost (no turnover) [2]	activity lost (no turnover) [3]	activity lost (no turnover) [4]
60.5 ± 1.27		CC(C)c1ccccc1O [2-isopropylphenol]			
	29.1 ± 1.54	CC(C)c1cc(O)ccc1O [2-isopropylhydroquinone]	all variants lost their activity against 2-isopropylhydroquinone	all variants lost their activity against 2-isopropylhydroquinone	all variants lost their activity against 2-isopropylhydroquinone
